# Source: ChEMBL document CHEMBL4038287, “Design, synthesis, and in vitro evaluation of novel antifungal triazoles” (2017)
# Experiments:
# Type in all cases: functional
# [1] = test system: Candida albicans; experiment: Antifungal activity against Candida albicans isolate SC5314 by micro-broth dilution method
# [2] = test system: Candida parapsilosis; experiment: Antifungal activity against Candida parapsilosis isolate 22019 by micro-broth dilution method; conditions: Lodderomyces parapsilosis
# [3] = test system: Nakaseomyces glabratus; experiment: Antifungal activity against Candida glabrata isolate 537 by micro-broth dilution method
# [4] = test system: Trichophyton rubrum; experiment: Antifungal activity against Trichophyton rubrum isolate cmccftla by micro-broth dilution method
# [5] = test system: Aspergillus fumigatus; experiment: Antifungal activity against Aspergillus fumigatus isolate 7544 by micro-broth dilution method
# [6] = test system: Nannizzia gypsea; experiment: Antifungal activity against Microsporum gypseum isolate cmccftla by micro-broth dilution method
# [7] = test system: Cryptococcus neoformans; experiment: Antifungal activity against Cryptococcus neoformans isolate 32605 by micro-broth dilution method
# [8] = test system: Candida albicans; experiment: Antifungal activity against Candida albicans isolate Y0109 by micro-broth dilution method
Structure (SMILES),MIC80 [1],MIC80 [2],MIC80 [3],MIC80 [4],MIC80 [5],MIC80 [6],MIC80 [7],MIC80 [8]
C[C@@H](c1cc(-c2c(F)cccc2F)no1)[C@](O)(Cn1cncn1)c1cc(F)ccc1F,0.5 µg/mL,1 µg/mL,0.125 µg/mL,4 µg/mL,> 8 µg/mL,> 8 µg/mL,0.0625 µg/mL,1 µg/mL
C[C@@H](c1cc(-c2c(F)cccc2F)no1)[C@](O)(Cn1cncn1)c1ccc(F)cc1F,0.125 µg/mL,0.125 µg/mL,0.0625 µg/mL,0.125 µg/mL,2 µg/mL,1 µg/mL,0.125 µg/mL,0.0625 µg/mL
C[C@@H](c1cc(-c2ccc(Cl)cc2)no1)[C@](O)(Cn1cncn1)c1ccc(F)cc1F,0.125 µg/mL,0.125 µg/mL,0.125 µg/mL,0.125 µg/mL,4 µg/mL,1 µg/mL,0.125 µg/mL,0.0313 µg/mL
C[C@@H](c1cc(-c2ccc(F)cc2)no1)[C@](O)(Cn1cncn1)c1cc(F)ccc1F,0.125 µg/mL,0.25 µg/mL,0.0625 µg/mL,1 µg/mL,> 8 µg/mL,> 8 µg/mL,0.0625 µg/mL,0.125 µg/mL
C[C@@H](c1cc(-c2ccccc2F)no1)[C@](O)(Cn1cncn1)c1ccc(F)cc1F,0.0313 µg/mL,0.125 µg/mL,0.0313 µg/mL,0.0625 µg/mL,2 µg/mL,0.5 µg/mL,0.125 µg/mL,0.0625 µg/mL
Cc1ccc(-c2cc([C@H](C)[C@](O)(Cn3cncn3)c3ccc(F)cc3F)on2)cc1,0.0625 µg/mL,0.125 µg/mL,0.25 µg/mL,0.25 µg/mL,8 µg/mL,2 µg/mL,0.125 µg/mL,0.25 µg/mL
C[C@@H](c1cc(-c2ccc(F)cc2F)no1)[C@](O)(Cn1cncn1)c1cc(F)ccc1F,0.25 µg/mL,1 µg/mL,0.0625 µg/mL,1 µg/mL,> 8 µg/mL,4 µg/mL,0.0625 µg/mL,0.125 µg/mL
C[C@@H](c1cc(-c2ccc(F)cc2F)no1)[C@](O)(Cn1cncn1)c1ccc(F)cc1F,0.0625 µg/mL,0.125 µg/mL,0.0313 µg/mL,0.0625 µg/mL,2 µg/mL,0.5 µg/mL,0.125 µg/mL,0.0625 µg/mL
C[C@@H](c1cc(-c2c(F)cc(F)cc2F)no1)[C@](O)(Cn1cncn1)c1ccc(F)cc1F,0.25 µg/mL,0.125 µg/mL,0.0625 µg/mL,0.5 µg/mL,2 µg/mL,1 µg/mL,0.0625 µg/mL,0.125 µg/mL
C[C@@H](c1cc(-c2ccc(C(F)(F)F)cc2)no1)[C@](O)(Cn1cncn1)c1ccc(F)cc1F,0.5 µg/mL,1 µg/mL,1 µg/mL,2 µg/mL,> 8 µg/mL,2 µg/mL,0.125 µg/mL,0.125 µg/mL
C[C@@H](c1cc(-c2ccc(OC(F)(F)F)cc2)no1)[C@](O)(Cn1cncn1)c1ccc(F)cc1F,0.125 µg/mL,0.5 µg/mL,0.0625 µg/mL,0.125 µg/mL,8 µg/mL,4 µg/mL,0.125 µg/mL,0.0313 µg/mL
C[C@@H](c1cc(-c2ccc(Cl)cc2F)no1)[C@](O)(Cn1cncn1)c1cc(F)ccc1F,0.5 µg/mL,1 µg/mL,0.0313 µg/mL,1 µg/mL,> 8 µg/mL,8 µg/mL,0.125 µg/mL,0.25 µg/mL
C[C@@H](c1cc(-c2ccc(Cl)c(Cl)c2)no1)[C@](O)(Cn1cncn1)c1ccc(F)cc1F,0.25 µg/mL,0.5 µg/mL,0.25 µg/mL,0.5 µg/mL,> 8 µg/mL,4 µg/mL,0.25 µg/mL,0.0625 µg/mL
OC(Cn1cncn1)(Cn1cncn1)c1ccc(F)cc1F [FLUCONAZOLE],0.5 µg/mL,2 µg/mL,2 µg/mL,8 µg/mL,> 64 µg/mL,32 µg/mL,0.5 µg/mL,0.25 µg/mL
CC(=O)N1CCN(c2ccc(OCC3COC(Cn4ccnc4)(c4ccc(Cl)cc4Cl)O3)cc2)CC1 (stereo not drawn) [KETOCONAZOLE],0.125 µg/mL,0.5 µg/mL,0.0625 µg/mL,1 µg/mL,4 µg/mL,1 µg/mL,0.0625 µg/mL,0.25 µg/mL
C[C@@H](c1nc(-c2ccc(C#N)cc2)cs1)[C@](O)(Cn1cncn1)c1ccc(F)cc1F [RAVUCONAZOLE],0.0625 µg/mL,0.25 µg/mL,0.125 µg/mL,0.125 µg/mL,2 µg/mL,1 µg/mL,0.125 µg/mL,0.0625 µg/mL
